Data taken from patent US20170166555A1, “FUNCTIONALISED AND SUBSTITUTED INDOLES AS ANTI-CANCER AGENTS” (Novogen Limited, priority 2013, published 2017).

Columns and labels:
[1] = tested on: melanoma (SK-Mel-28) cells; test: Cell viability assay (MTT, 48 hr); assay type: cell-based; conditions: Homo sapiens, 48 hr treatment, read-out: IC50 (μM) SKMEL28
Protocol: (§1) Cell viability assays were also conducted to assess the anti-proliferative effects of the anti-tropomyosin compounds 4001-4015. Briefly, cells (1×10^3/well) were plated (96-well) and treated (48 hr) with anti-tropomyosin drug and viability measured using 3-(4,5-dimethylthiazol-2-yl)-2,5-diphenylterazolium bromide MTT. Cell viability was normalized to control (vehicle alone) and dose-response curves, and half maximal effective concentration (EC50) values were determined using Graph Pad Prism 5 (nonlinear regression sigmoidal dose-response variable slope).

[2] = tested on: neuroblastoma (SH-EP) cells; test: Cell viability assay (MTT, 48 hr); assay type: cell-based; conditions: 48 hr treatment, read-out: IC50 (μM) SHEP
Protocol: as §1

[3] = tested on: A549 non-small cell lung carcinoma cells; test: Anti-proliferative assay, cell-titre luminescent reagent, 72 h (GVK-BIO); assay type: cell-based; conditions: Homo sapiens, A549, 72 h, 30, 3, 0.3 and 0.03 μM, linear regression (Tables 2-4), read-out: IC50/μM Lung (NSLC) A549
Procedure, shortened: (§2)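 Seed at predetermined density, 24 h attach (37 °C, 5% CO2). Dose 4-point (30–0.03 μM, 10-fold) → IC50 by linear regression on semi-log plot; or 6-point (30–0.1 μM) → EC50 by sigmoidal variable-slope fit. Reagent 30 min, luminescence vs untreated control.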

[4] = tested on: CaCo2 colorectal cancer cells; test: as above; assay type: cell-based; conditions: Homo sapiens, Caco-2, 72 h, 30, 3, 0.3 and 0.03 μM, linear regression (Tables 2-4)
Procedure, shortened: as §2

[5] = tested on: DU145 prostate cancer cells; test: as above; assay type: cell-based; conditions: Homo sapiens, DU-145, 72 h, 30, 3, 0.3 and 0.03 μM, linear regression (Tables 2-4)
Procedure, shortened: as §2

[6] = tested on: MDA-MB-231 triple negative breast cancer cells; test: as above; assay type: cell-based; conditions: Homo sapiens, MDA-MB-231, 72 h, 30, 3, 0.3 and 0.03 μM, linear regression (Tables 2-4)
Procedure, shortened: as §2

[7] = tested on: PC3 prostate cancer cells; test: as above; assay type: cell-based; conditions: 30, 3, 0.3 and 0.03 μM, linear regression (Tables 2-4)
Procedure, shortened: as §2

SK-Mel-28 melanoma cells = test: as above; assay type: cell-based; conditions: Homo sapiens, SK-MEL-28, 72 h, 30, 3, 0.3 and 0.03 μM, linear regression (Tables 2-4)
Procedure, shortened: as §2

[8] = tested on: SK-N-SH neuroblastoma cells; test: as above; assay type: cell-based; conditions: Homo sapiens, SK-N-SH, 30, 3, 0.3 and 0.03 μM, linear regression (Tables 2-4)
Procedure, shortened: as §2

Tm5NM1 = Tm5NM1 (Homo sapiens, UniProt P06753); test: Pyrene-based actin filament depolymerization assay; assay type: biochemical; conditions: for Rate of depolymerization of Tm5NM1-containing actin filaments in the presence of compound (in words): Tm5NM1 pre-incubated with 50 μM compound, compared to F-actin alone
Protocol: FIG. 4: Impact of compounds 4015 and 4093 on Tm5NM1-regulated actin-filament depolymerization kinetics. (A, C and E) Depolymerization time course of 6 μM actin filaments (35% pyrene labelled) diluted 12-fold into F-actin buffer (100 mM NaCl, 10 mM Tris-HCl pH 7.0, 2 mM MgCl2, 1 mM EGTA, 0.2 mM CaCl2, 0.2 mM ATP, 0.5 mM DTT, 0.01% (v/v) NaN3) in the presence or absence of saturating amounts (10 μM) of Tm5NM1. Final concentration of F-actin and Tm5NM1 was 0.5 μM and 0.83 μM respectively. Tm5NM1 was pre-incubated with 50 μM 4015, 4093 or 1% (v/v) DMSO prior to mixing with F-actin. Depolymerization data is normalized to the initial fluorescence value. (B, D and F) Initial rates (V0) of depolymerization for F-actin alone or Tm5NM1/F-actin, in the presence of compound 4015 or 4093. Initial rates of depolymerization were determined from the first 3600 s, fitted to a linear regression model. Data represents mean ±SEM, averaged from n>8 replicates. **** p<0.0001, ** p<0.005.
A brief overview and rationale of the assay is as follows: to promote depolymerization, pyrene-labelled actin filaments were diluted below the critical concentration of the pointed end (0.5 μM, as defined by Pollard et al., 1986). A decline in fluorescence was measured over time as actin monomers dissociate. […] Therefore, any compound, which interacts with, and impacts Tm5NM1 function, would nullify the protective effect of Tm5NM1 on actin depolymerization.
For all assays the depolymerization of F-actin alone and F-actin-coated with the human homologue of Tm5NM1 was used as a comparative control. Briefly, Tm5NM1 was pre-incubated with F-actin for 20 minutes prior to diluting the filaments, to allow for proper assembly of the Tm5NM1 polymer.
The depolymerization of F-actin alone and F-actin-coated with Tm5NM1 was then measured in the presence of test compound and initial rates of depolymerization were compared. Tm5NM1 was pre-incubated with 50 μM 4015 and 4093 prior to being added to the actin filaments as previously described. In the presence of compound 4015, the rate of depolymerization of Tm5NM1-containing actin filaments was increased.

Chain of Tm5NM1 (P06753 1-248 isoform P06753-2): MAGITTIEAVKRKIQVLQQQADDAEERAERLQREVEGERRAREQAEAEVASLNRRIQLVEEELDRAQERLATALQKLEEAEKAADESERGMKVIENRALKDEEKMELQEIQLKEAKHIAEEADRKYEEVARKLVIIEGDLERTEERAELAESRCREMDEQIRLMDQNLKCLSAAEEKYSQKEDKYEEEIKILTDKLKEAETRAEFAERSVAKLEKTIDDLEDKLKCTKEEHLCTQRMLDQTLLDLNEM

Initial rate (V0) of depolymerization, F-actin alone (Tm5NM1; 50 μM compound, FIG. 4E and F) | Initial rate (V0) of depolymerization, Tm5NM1-containing actin (Tm5NM1; 50 μM compound, FIG. 4E and F) | SMILES | IC50 [1] | IC50 [2] | IC50 [3] | IC50 [4] | IC50 [5] | IC50 [6] | IC50 [7] | IC50 (SK-Mel-28 melanoma cells) | IC50 [8] | Rate of depolymerization of Tm5NM1-containing actin filaments in the presence of compound (in words) (Tm5NM1)
– | – | Cc1c(C)n(CCCN(C)C)c2ccc(CN3CCN(CCc4ccccc4)CC3)cc12 [Compound 4015, 3-(2,3-dimethyl-5-((4-phenethylpiperazin-1-yl)methyl)-1H-indol-1-yl)-N,N-dimethylpropan-1-amine] | 6.4 µM | 4.6 µM | 1.8 µM | 2.9 µM | 3.7 µM | 3 µM | 2.9 µM | 3.9 µM | 4.6 µM | increased
−0.30±0.029×10^−4 | −0.26±0.028×10^−4 | Cc1c(C)n(CCCN(C)C)c2ccc(Oc3ccc(C(=O)Nc4ccc(F)cc4)cc3)cc12 [Compound 4093, 4-((1-(3-(dimethylamino)propyl)-2,3-dimethyl-1H-indol-5-yl)oxy)-N-(4-fluorophenyl)benzamide] | – | – | 3 µM | 1.8 µM | 1.7 µM | 2.1 µM | 1.2 µM | 0.9 µM | 2.5 µM | no significant difference
